Tests used:
Assay type in all cases: in vivo
[1] = system: barnyardgrass (Echinochloa crusgalli); test: Test B flooded paddy test, visual plant response rating 0-100; conditions: 250 g ai/ha, Flood, applied to paddy water, evaluated after 13 days
Summary of the method: (§1)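 2-leaf plants; flood 3 cm over soil; compound dosed into paddy water; depth kept constant; greenhouse 13 d; visual scoring vs controls. Dash = no result.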

[2] = system: rice (Oryza sativa); test: as above; conditions: 250 g ai/ha, Flood, applied to paddy water, evaluated after 13 days
Summary of the method: as §1

[3] = system: sedge, umbrella (small-flower umbrella sedge, Cyperus difformis); test: as above; conditions: 250 g ai/ha, Flood, applied to paddy water, evaluated after 13 days
Summary of the method: as §1

[4] = system: ducksalad (Heteranthera limosa); test: as above; conditions: 250 g ai/ha, Flood, applied to paddy water, evaluated after 13 days
Summary of the method: as §1

[5] = system: oat, wild (wild oat, Avena fatua); test: Test A preemergence soil spray, visual injury rating 0-100; conditions: 10 days, 0 = no effect, 100 = complete control
Summary of the method: (§2)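 Compounds formulated in a non-phytotoxic solvent with surfactant are sprayed onto soil of freshly planted loam-sand pots ahead of emergence, or onto emerged plants 2-10 cm tall. After a 10-day greenhouse period, each species is scored visually for injury against untreated controls.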

[6] = system: kochia (Bassia scoparia); test: as above; conditions: 10 days, 0 = no effect, 100 = complete control
Summary of the method: as §2

[7] = system: ragweed (common ragweed, Ambrosia artemisiifolia); test: as above; conditions: 10 days, 0 = no effect, 100 = complete control
Summary of the method: as §2

[8] = system: ryegrass, Italian (italian ryegrass, Lolium multiflorum); test: as above; conditions: 10 days, 0 = no effect, 100 = complete control
Summary of the method: as §2

[9] = system: palmer (palmer amaranth, palmer pigweed, Amaranthus palmeri); test: as above; conditions: 10 days, 0 = no effect, 100 = complete control
Summary of the method: as §2

[10] = system: blackgrass (Alopecurus myosuroides); test: as above; conditions: 10 days, 0 = no effect, 100 = complete control
Summary of the method: as §2

[11] = system: soybean (Glycine max); test: as above; conditions: 10 days, 0 = no effect, 100 = complete control
Summary of the method: as §2

[12] = system: wheat (Triticum aestivum); test: as above; conditions: 10 days, 0 = no effect, 100 = complete control
Summary of the method: as §2

[13] = system: green foxtail (Setaria viridis); test: as above; conditions: 10 days, 0 = no effect, 100 = complete control
Summary of the method: as §2

[14] = system: barnyardgrass (Echinochloa crus-galli); test: as above; conditions: 10 days, 0 = no effect, 100 = complete control
Summary of the method: as §2

[15] = system: corn (Zea mays); test: as above; conditions: 10 days, 0 = no effect, 100 = complete control
Summary of the method: as §2

[16] = system: horseweed (Erigeron canadensis); test: Test A postemergence application, visual injury rating 0-100; conditions: 10 days
Summary of the method: as §2

[17] = system: oat, wild (wild oat, Avena fatua); test: as above; conditions: 10 days
Summary of the method: as §2

[18] = system: kochia (Bassia scoparia); test: as above; conditions: 10 days
Summary of the method: as §2

[19] = system: ragweed (common ragweed, Ambrosia artemisiifolia); test: as above; conditions: 10 days
Summary of the method: as §2

[20] = system: ryegrass, Italian (italian ryegrass, Lolium multiflorum); test: as above; conditions: 10 days
Summary of the method: as §2

[21] = system: palmer (palmer amaranth, palmer pigweed, Amaranthus palmeri); test: as above; conditions: 10 days
Summary of the method: as §2

[22] = system: blackgrass (Alopecurus myosuroides); test: as above; conditions: 10 days
Summary of the method: as §2

[23] = system: galium (catchweed bedstraw, Galium aparine); test: as above; conditions: 10 days
Summary of the method: as §2

[24] = system: soybean (Glycine max); test: as above; conditions: 10 days
Summary of the method: as §2

[25] = system: wheat (Triticum aestivum); test: as above; conditions: 10 days
Summary of the method: as §2

[26] = system: green foxtail (Setaria viridis); test: as above; conditions: 10 days
Summary of the method: as §2

[27] = system: barnyardgrass (Echinochloa crus-galli); test: as above; conditions: 10 days
Summary of the method: as §2

[28] = system: corn (Zea mays); test: as above; conditions: 10 days
Summary of the method: as §2

[29] = 31 g ai/ha, postemergence, 0 = no effect, 100 = complete control
[30] = Postemergence, 125 g ai/ha, 0 is no effect, 100 is complete control

## CC(C)OC(=O)C1CC(NC(=O)C2(C)CN(c3cc(F)cc(F)c3)C(=O)O2)CO1 (stereo not shown) [Compound 32]
[1]
  Plant response rating, Barnyardgrass (0 to 100 scale, 0 is no effect and 100 is complete control): 0
[2]
  Plant response rating, Rice (0 to 100 scale, 0 is no effect and 100 is complete control): 0
[3]
  Plant response rating, Sedge, Umbrella (0 to 100 scale, 0 is no effect and 100 is complete control): 0
[4]
  Plant response rating, Ducksalad (0 to 100 scale, 0 is no effect and 100 is complete control): 0
[5]; 31 g ai/ha
  Oat, Wild plant response rating (0-100): 0
[5]; 125 g ai/ha
  Oat, Wild plant response rating (0 to 100 scale): 40
[6]; 31 g ai/ha
  Kochia plant response rating (0-100): 0
[6]; 125 g ai/ha
  Kochia plant response rating (0 to 100 scale): 20
[7]; 31 g ai/ha
  Ragweed plant response rating (0-100): 0
[7]; 125 g ai/ha
  Ragweed plant response rating (0 to 100 scale): 0
[8]; 31 g ai/ha
  Ryegrass, Italian plant response rating (0-100): 0
[8]; 125 g ai/ha
  Ryegrass, Italian plant response rating (0 to 100 scale): 80
[9]; 31 g ai/ha
  Amaranth, Palmer plant response rating (0-100): 0
[9]; 125 g ai/ha
  Amaranth, Palmer plant response rating (0 to 100 scale): 0
[10]; 31 g ai/ha
  Blackgrass plant response rating (0-100): 0
[10]; 125 g ai/ha
  Blackgrass plant response rating (0 to 100 scale): 0
[11]; 31 g ai/ha
  Soybean plant response rating (0-100): 20
[11]; 125 g ai/ha
  Soybean plant response rating (0 to 100 scale): 0
[12]; 31 g ai/ha
  Wheat plant response rating (0-100): 0
[12]; 125 g ai/ha
  Wheat plant response rating (0 to 100 scale): 70
[13]; 31 g ai/ha
  Foxtail, Green plant response rating (0-100): 0
[13]; 125 g ai/ha
  Foxtail, Green plant response rating (0 to 100 scale): 0
[14]; 31 g ai/ha
  Barnyardgrass plant response rating (0-100): 0
[14]; 125 g ai/ha
  Barnyardgrass plant response rating (0 to 100 scale): 0
[15]; 31 g ai/ha
  Corn plant response rating (0-100): 0
[15]; 125 g ai/ha
  Corn plant response rating (0 to 100 scale): 10
[16]; [29]
  Horseweed plant response rating (0-100): 0
[16]; [30]
  Horseweed plant response rating (0 to 100 scale): 0
[17]; [29]
  Oat, Wild plant response rating (0-100): 80
[17]; [30]
  Oat, Wild plant response rating (0 to 100 scale): 90
[18]; [29]
  Kochia plant response rating (0-100): 40
[18]; [30]
  Kochia plant response rating (0 to 100 scale): 50
[19]; [29]
  Ragweed plant response rating (0-100): 30
[19]; [30]
  Ragweed plant response rating (0 to 100 scale): 50
[20]; [29]
  Ryegrass, Italian plant response rating (0-100): 20
[20]; [30]
  Ryegrass, Italian plant response rating (0 to 100 scale): 80
[21]; [29]
  Amaranth, Palmer plant response rating (0-100): 0
[21]; [30]
  Amaranth, Palmer / Pigweed, Palmer plant response rating (0 to 100 scale): 30
[22]; [29]
  Blackgrass plant response rating (0-100): 80
[22]; [30]
  Blackgrass plant response rating (0 to 100 scale): 100
[23]; [29]
  Galium plant response rating (0-100): 50
[23]; [30]
  Galium plant response rating (0 to 100 scale): 80
[24]; [29]
  Soybean plant response rating (0-100): 20
[24]; [30]
  Soybean plant response rating (0 to 100 scale): 60
[25]; [29]
  Wheat plant response rating (0-100): 80
[25]; [30]
  Wheat plant response rating (0 to 100 scale): 90
[26]; [29]
  Foxtail, Green plant response rating (0-100): 0
[26]; [30]
  Foxtail, Green plant response rating (0 to 100 scale): 40
[27]; [29]
  Barnyardgrass plant response rating (0-100): 0
[27]; [30]
  Barnyardgrass plant response rating (0 to 100 scale): 90
[28]; [29]
  Corn plant response rating (0-100): 0
[28]; [30]
  Corn plant response rating (0 to 100 scale): 50

— US20260285850A1, “SUBSTITUTED OXAZOLIDINONES AND IMIDAZOLINONES AS HERBICIDES” (FMC CORPORATION, priority 2023, published 2026)
